In patent US11013673B2, “Cosmetic compositions containing quinones and their topical use on skin and hair” (Repairogen Corp, priority 2016, dated 2021):

Experiments:
[1] = tested on: human epidermal keratinocytes; experiment: microarray analysis of differential gene expression in keratinocytes; settings: for number of genes downregulated / number of genes upregulated: 24 h
Description: (§1) Normal primary adult human keratinocytes derived from a donor were purchased from PromoCell (Heidelberg, Germany) and cultured in keratinocytes growth medium (Epilife+EDGS, Thermo Fisher Scientific, NY, USA). Keratinocytes cultures were maintained at 37° C. with 5% CO2 and ˜95% humidity.
Normal primary human keratinocytes were seeded in 6-well plates and incubated for 24 h. Cells were then washed in PBS (Thermo Fisher Scientific) and reincubated for 24 more hours in the presence of RGN1518 and RGN1538 (each at two different concentrations), vehicle control, or positive control. Following treatment, the cells were washed with PBS, collected and stored frozen at −80° C. before RNA extraction.
RNA was extracted using a Qiagen RNeasy kit (Qiagen, CA, USA) according to manufacturer's protocol.
18 vials containing RNA isolated from human epidermal keratinocytes and 18 vials containing RNA isolated from human fibroblasts were shipped to Thermo Fisher Scientific, Advanced BioMedical Laboratories (Cinnaminson, N.J.) on dry ice for Affymetrix Human Clariom D array processing.
The differential gene expression was obtained using a threshold of 0.05 for statistical significance (p-value) and a log fold change of expression with absolute value of at least 1. Gene expression was further analysed using Differential Expression Analysis and Pathway Analysis iPathwayGuide) by Advaita Bioinformatics Services (Plymouth, Mich.) in the context of pathways obtained from the Kyoto Encyclopedia of Genes and Genomes (KEGG) database (Release 84.0+/10-26, October 17) (Kanehisa et al., 2000; Kanehisa et al., 2002), gene ontologies from the Gene Ontology Consortium database (2017 Nov. 6) (Ashburner et al., 2000; Gene Ontology Consortium, 2001), miRNAs from the miRBase (Release 21) and […] (Targetscan version:Mouse:7.1, Human:7.1) databases (Agarwal et al., 2015; Nam et al., 2014; Griffiths-Jones et al., 2008; Kozomara and Griffiths-Jones, 2014; Friedman et al., 2009; Grimson et al., 2007), and diseases from the KEGG database (Release 84.0+/10-26, October 17) (Kanehisa et al., 2000; Kanehisa et al., 2002). All references are available in the reports for bioinformatics analysis of differential gene expression provided by Advaita Bioinformatics Services at the following link.

[2] = tested on: primary human fibroblasts; experiment: cytotoxicity assay (Cell Titer96 Aqueous One) on fibroblasts; settings: 24 h
Description: Normal human dermal adult fibroblasts derived from a donor of were purchased from CELLnTec (Bern, Switzerland) and grown in DMEM supplemented with 10% FBS (Life Technologies, CA, USA). Fibroblasts cultures were maintained at 37° C. with 5% CO2 and ˜95% humidity.
(§2) Cytotoxicity was evaluated using the Cell Titer96 Aqueous One (Promega, Wis., USA) basic test according to manufacturer's instructions. Cells were seeded at a density of 10,000 cells/well in a 96-well plate and cultured overnight. Treatments with seven doses of compounds were carried out for 24 hours, in triplicates. Colorimetric analysis was performed using an absorbance of 490 nm. Inhibition of viability of more than 20% of the control values was considered cytotoxic.
The cytotoxicity assay on primary human fibroblasts from adult donor was performed after 24 h of culture in the presence of different concentrations of each compound, as indicated in FIG. 2B and Table 2.

[3] = stability of active ingredient in cosmetic composition; settings: 40° C., 50° C., −5° C.; two-, four-, six-, eight-, and 12-week time points
Description: Two cosmetic compositions were prepared, one containing lapachol (denoted RGN 1538) and the other containing myrtucommulone C (denoted RGN 1518) as active ingredients, and the stabilities of the active ingredients in these compositions were evaluated.

human fibroblasts = experiment: microarray analysis of differential gene expression in fibroblasts; type: cell-based
[4] = tested on: primary human keratinocytes; experiment: cytotoxicity assay (Cell Titer96 Aqueous One) on keratinocytes; type: cell-based; settings: 24 h
Description: as §1, §2
The cytotoxicity assay on primary human keratinocytes from adult donor was performed after 24 h of culture in the presence of different concentrations of each compound, as indicated in FIG. 2A and Table 1.

[5] = concentration of 50 (unit not given), 24 h
[6] = wound healing gene, fibroblasts, 24 h

For myrtucommulone C, the “expression of DNAJB9” value [1] was “upregulated”, the “expression of cell cycle genes PKMYT1, MYC” value [1] was “upregulated” and the “number of genes downregulated” value ([1]; 1.6 μM) was 1196 genes. The “number of genes upregulated” value ([1]; 1.6 μM) was 492 genes, the “number of genes downregulated” value ([1]; 3.1 μM, of 24905 genes) was 1294 genes and the “number of genes upregulated” value ([1]; 3.1 μM, of 24905 genes) was 693 genes. For the same substance, the “expression of cell cycle genes” value ([1]; CDK1, PLK1, RB1, CDC25C, CDC25B, MAD2L1, CDKN2B, CCNA2, MAD1L1, TTK, ZBTB17, RBL1, CCNB1, CCNB2, BUB1, CDC20, PTTG1, BUB1B) was “downregulated”, the “expression of genes maintaining structure and activity of the Golgi apparatus” value ([1]; COG6, ARFGAP3, IFT20, MGAT4) was “upregulated” and the “expression of genes important for normal differentiation and function of skin” value ([1]; FGF2, VEGFA, SERPINB1, CDH4, GDF15) was “upregulated”. For the same substance, the “expression of genes involved in Metabolic Pathways” value ([1]; GK, FA2H, ASS1, ACSS2, HK2, PHGDH, CYP1A1, CSGALNACT2) was “upregulated”, the “expression of genes associated with inflammation” value ([1]; IL1A, IL6, IL1R2, IL1RL1, IL2RG, TSC22D3) was “upregulated” and the “expression of genes involved in Metabolic Pathways” value ([1]; MTHFD1, CYP2J2, RRM2, TYMS) was “downregulated”. The “Avg (% of untreated)” value ([2]; 6.2 μM) was 97%, the “Avg (% of untreated)” value ([2]; 12.4 μM) was 94% and the “Avg (% of untreated)” value ([2]; 24.8 μM) was 90%. The “Avg (% of untreated)” value ([2]; 50 μM) was 88%, the “Avg (% of untreated)” value ([2]; 100 μM) was 74% and the “Avg (% of untreated)” value ([2]; 200 μM) was 72%. For the same substance, the “Avg (% of untreated)” value ([2]; 400 μM) was 54%, the “concentrations that showed no cytotoxicity” value ([2]; unit not given) was “up to 50” and the “acceptable degradation of active compound (20% or 80% of original)” value [3] was “met this criteria”. For the same substance, the “vascular wound healing, spreading of epidermal cells and vasculature development (gene profile)” value (human fibroblasts) was “activation”, the “number of genes downregulated” value (human fibroblasts; 25 μM, 24 h, of 24905 genes) was 430 genes and the “number of genes upregulated” value (human fibroblasts; 25 μM, 24 h, of 24905 genes) was 986 genes. The “number of genes downregulated” value (human fibroblasts; 62 μM, 24 h) was 76 genes, the “number of genes upregulated” value (human fibroblasts; 62 μM, 24 h) was 53 genes and the “gene expression of common skin targets” value (human fibroblasts; CRELD1, NGF, GLRX2, CSGALNACT2, VEGFA, ITGA2, PPARG, EPGN) was “upregulated”. For the same substance, the “number of genes involved in wound healing downregulated” value (human fibroblasts; at both doses) was 24 genes, the “number of genes involved in wound healing upregulated” value (human fibroblasts; at both doses) was 28 genes and the “hair cycle, hair follicle morphogenesis and development (biological processes)” value (human fibroblasts; both concentrations) was “affected”. For the same substance, the “number of genes downregulated” value (human fibroblasts; [5]) was 468 genes, the “number of genes upregulated” value (human fibroblasts; [5]) was 821 genes and the “Log Fc ACTB” value (human fibroblasts; [6]) was −1.055. The “Log Fc ADAM17” value (human fibroblasts; [6]) was 1.323, the “Log Fc AJUBA” value (human fibroblasts; [6]) was −1.145 and the “Log Fc CARMIL1” value (human fibroblasts; [6]) was −1.177. For the same substance, the “Log Fc DGKE” value (human fibroblasts; [6]) was 1.432, the “Log Fc EDN1” value (human fibroblasts; [6]) was −1.404 and the “Log Fc EREG” value (human fibroblasts; [6]) was 2.169. For the same substance, the “Log Fc F2RL2” value (human fibroblasts; [6]) was 1.038, the “Log Fc F3” value (human fibroblasts; [6]) was −1.039 and the “Log Fc FGF10” value (human fibroblasts; [6]) was −1.313. For the same substance, the “Log Fc FGFR1OP2” value (human fibroblasts; [6]) was 1.213, the “Log Fc GATA6” value (human fibroblasts; [6]) was −1.081 and the “Log Fc GSN” value (human fibroblasts; [6]) was −1.041. For the same substance, the “Log Fc HBEGF” value (human fibroblasts; [6]) was 1.225, the “Log Fc HIST1H3G” value (human fibroblasts; [6]) was −2.339 and the “Log Fc HIST2H3A” value (human fibroblasts; [6]) was −1.285. For the same substance, the “Log Fc HMOX1” value (human fibroblasts; [6]) was 1.346, the “Log Fc IFRD1” value (human fibroblasts; [6]) was 1.072 and the “Log Fc IL6” value (human fibroblasts; [6]) was 2.578. For the same substance, the “Log Fc IL24” value (human fibroblasts; [6]) was 1.179, the “Log Fc IRF1” value (human fibroblasts; [6]) was 1.27 and the “Log Fc ITGA2” value (human fibroblasts; [6]) was 2.425. The “Log Fc ITGB3” value (human fibroblasts; [6]) was 2.051, the “Log Fc ITPR1” value (human fibroblasts; [6]) was 1.812 and the “Log Fc LBH” value (human fibroblasts; [6]) was −1.524. For the same substance, the “Log Fc MAFK” value (human fibroblasts; [6]) was 1.267, the “Log Fc MERTK” value (human fibroblasts; [6]) was 1.107 and the “Log Fc MIR199A1” value (human fibroblasts; [6]) was 2.142. The “Log Fc MIR221” value (human fibroblasts; [6]) was 1.648, the “Log Fc MYLK” value (human fibroblasts; [6]) was −1.62 and the “Log Fc NDNF” value (human fibroblasts; [6]) was 1.132. The “Log Fc NOV” value (human fibroblasts; [6]) was −1.524, the “Log Fc PDGFD” value (human fibroblasts; [6]) was −1.782 and the “Log Fc PDPN” value (human fibroblasts; [6]) was 1.265. The “Log Fc PLAUR” value (human fibroblasts; [6]) was 1.077, the “Log Fc PLET1” value (human fibroblasts; [6]) was 1.412 and the “Log Fc PLPP3” value (human fibroblasts; [6]) was −1.23. The “Log Fc RAB27A” value (human fibroblasts; [6]) was 1.228, the “Log Fc SMAD3” value (human fibroblasts; [6]) was −1.102 and the “Log Fc SYT7” value (human fibroblasts; [6]) was 1.079. The “Log Fc TFPI2” value (human fibroblasts; [6]) was 2.549, the “Log Fc TGFBR2” value (human fibroblasts; [6]) was −1.067 and the “Log Fc THBD” value (human fibroblasts; [6]) was 4.119. For the same substance, the “Log Fc THBS1” value (human fibroblasts; [6]) was −1.287, the “Log Fc TLN1” value (human fibroblasts; [6]) was −1.13 and the “Log Fc TMEFF2” value (human fibroblasts; [6]) was −1.526. For the same substance, the “Log Fc TNFAIP3” value (human fibroblasts; [6]) was 2.328, the “Log Fc TPM1” value (human fibroblasts; [6]) was −1.209 and the “Log Fc TRPC6” value (human fibroblasts; [6]) was −2.444. The “Log Fc UBASH3B” value (human fibroblasts; [6]) was 1.546, the “Log Fc WNT5A” value (human fibroblasts; [6]) was −1.732 and the “Avg (% of untreated)” value ([4]; 6.2 μM) was 80%. For the same substance, the “Avg (% of untreated)” value ([4]; 12.4 μM) was 44%, the “Avg (% of untreated)” value ([4]; 24.8 μM) was 43% and the “Avg (% of untreated)” value ([4]; 50 μM) was 47%. The “Avg (% of untreated)” value ([4]; 100 μM) was 43%, the “Avg (% of untreated)” value ([4]; 200 μM) was 54% and the “Avg (% of untreated)” value ([4]; 400 μM) was 51%. The “concentrations that showed no cytotoxicity” value ([4]; unit not given) was “up to 6.2”.
